System: polymerase
Assay: Amplification plots and Cq of gene targets, Dt4 compared with Tween 20 and Brij-58
Assay type: biochemical
Conditions: B2M, GAPDH, RPLPO; FIGS. 16-18
Description: All amplification plots shown herein graphically represent target nucleic acid amplification as ΔRn (y-axis) as a function of cycle number (x-axis).
FIGS. 7A through 7D and FIGS. 8A through 8D provide a comparison between Dt4 and Tween® 20 in amplifying four different targets (B2M, GAPDH, RPLPO, and GUSB).
FIG. 9 provides a comparison between Dt4 and Tween® 20 in amplifying various different targets.
FIGS. 11A and 11B, FIGS. 12A and 12B, FIGS. 13A and 13B, FIGS. 14A and 14B, FIGS. 15A and 15B show amplification plots comparing the activity of Dt4 to Brij-58 and Tween® 20 at various concentrations in amplifying HPRT1 or PPIA.
FIGS. 16-18 illustrate that Dt4 may be used at a lower concentration than Tween® 20 in various reactions (e.g., 0.002% Dt4 compared to 0.01% Tween® 20).

Substance: Tween® 20
- concentration used in amplification reactions: 0.01%
